Measured values from PMC12040169 (PLOS Biology, 2025).

Experiment: in vitro
Conditions: human, hela cells, % viability

Structure (SMILES)	viability at 28.5 h, 10 µM [%]
O=C(O)C1CCCCC1C(=O)N1CCN(Cc2cccc3ccccc23)CC1 (centres unmarked) [CBK270293]	91.2
Cc1ccccc1CN1CCN(CC(=O)Nc2ccccc2C(N)=O)CC1 [CBK270296]	94.1
Cc1c(Cl)cccc1NC(=O)CSc1nccn1C [CBK270297]	91.5
O=C(O)COCC(=O)N1CCN(CCc2ccccc2)CC1 [CBK270298]	107
Cc1cccc(-c2nc(CN3CCOCC3)cs2)c1 [CBK270299]	103
CCCN1CCN(CC(=O)NCc2ccco2)CC1 [CBK270300]	84.2
COc1ccc(NC(=O)C2CCCCC2C(=O)O)c(C)c1 (centres unmarked) [CBK270301]	83.9
CCn1cc(S(=O)(=O)Nc2cc(C)on2)cn1 [CBK270302]	84.3
COc1ccc(NC(=O)CSc2nnc(C3CC3)n2C)c(OC)c1 [CBK270303]	81.9
CCn1cc(S(=O)(=O)NCc2ccccc2OC)cn1 [CBK270304]	98.1
COc1cc(NC(=O)CSc2nncn2C)c(OC)cc1Cl [CBK270307]	86.4
Cc1occc1-c1nnc(SCC(=O)Nc2ccccc2)n1C [CBK270308]	84.9
CN(C)CCNC(=O)c1cccc(Oc2ccccc2)c1 [CBK270310]	83.1
CCc1cc(C(=O)OC)c(NC(=O)C2C3C=CC(C3)C2C(=O)O)s1 (centres unmarked) [CBK270315]	94.9
Cc1sc(NC(=O)c2ccc(F)cc2Cl)c(C(=O)NCc2cccnc2)c1C [CBK270319]	82.9
NC(=O)c1ccccc1NC(=O)CN1CCN(Cc2cccc(Cl)c2)CC1 [CBK270320]	103
CCn1cc(S(=O)(=O)N2CCC3(CC2)OCCO3)cn1 [CBK270321]	112
Cc1nn(S(=O)(=O)c2cccc3nsnc23)c(C)c1Cl [CBK270323]	92.6
O=S(=O)(c1ccc(Cl)s1)N1CCN(Cc2ccc3c(c2)OCO3)CC1 [CBK270324]	89.5

Structure (SMILES)	viability at 28.5 h, 10 µM [%]
COC(=O)c1sccc1NC(=O)c1ccc(F)cc1Cl [CBK270325]	88.2
CCCN1CCN(S(=O)(=O)c2ccc(C)cc2)CC1 [CBK270326]	90
CC(NC(=O)c1cccc(Oc2ccccc2)c1)c1ccncc1 (centres unmarked) [CBK270327]	91.3
CCn1cc(S(=O)(=O)N2CCN(c3cccc(C(F)(F)F)c3)CC2)cn1 [CBK270328]	93.6
O=C(O)C1CCCCC1C(=O)N1CCN(Cc2cccc(Cl)c2)CC1 (centres unmarked) [CBK270330]	85
O=C(Nc1ccc2c(c1)OCO2)N1CCN(c2ccc(F)cc2)CC1 [CBK270332]	86.3
O=C(NCc1ccco1)c1cccc(Oc2ccccc2)c1 [CBK270333]	89.3
O=C(O)C1C2C=CC(C2)C1C(=O)N1CCN(Cc2ccccc2Cl)CC1 (centres unmarked) [CBK270334]	93
CCN1CCN(C(=O)C2CCCCC2C(=O)O)CC1 (centres unmarked) [CBK270337]	111
O=C(Nc1ccc2c(c1)C(=O)NC2=O)c1ccccc1 [CBK270384]	86.5
Nc1nonc1-n1nnc(CN2CCCCC2)c1CN1CCCCC1 [CBK270636]	82.3
CC(=O)N(C)c1ccc(NC(=O)c2ccccc2C(=O)O)cc1 [CBK270693]	97.9
CSc1nc(-c2ccccc2)nc(N)c1C(C)=O [CBK270762]	90.1
CC1(C)CCCC2=C1CC(C(=O)O)C(C(=O)O)C2 (centres unmarked) [CBK272329]	97.4
CC(C)(C)c1cn2c3ccccc3nc2n1CCO [CBK273412]	102
O=C(O)c1ccc(N2C(=O)CC(N3CCC(Cc4ccccc4)CC3)C2=O)cc1 (centres unmarked) [CBK273484]	93.4
O=C(O)C1Nc2c(C(=O)N3CCOCC3)cccc2C2C=CCC12 (centres unmarked) [CBK275006]	104
O=C(CSCc1ccc(Cl)cc1Cl)Nc1ccc(O)cc1C(=O)O [CBK275322]	95
O=C(O)c1ccc(NC(=O)c2ccccc2F)c(NC(=O)c2ccccc2F)c1 [CBK275363]	101
